Test results as given in patent publication US10266529B2, “Salts, co-crystals, and polymorphs of an anxiolytic compound” (Bionomics Limited, priority 2013, dated 2019).
Values after ≈ are worked out from the molar mass of the structure shown.

What was measured:
Assay type in all cases: physicochemical
[1] = Stability of amorphous material under ambient conditions (re-examination by XRPD)
Excerpt: The amorphous material appears to be stable for at least 5 days under ambient conditions, as it was unchanged after re-examination by XRPD (data not shown).

[2] = Aqueous solubility determination (2 h equilibration in doubly distilled water, HPLC)
Description: Approximately 0.3 mL of doubly distilled water was added to 3-10 mg of the substance to be measured. The resulting suspension/solution was equilibrated in a temperature-controlled Eppendorf Thermomixer Comfort shaker for 2 h at 25° C. at a shaking rate of 500 rpm. The solid phase was recovered by filter centrifugation (0.10-μm PVDF membrane) and examined by FT-Raman spectroscopy. The pH of the corresponding solution was determined with a Metrohm 713 pH meter. The concentration of the solution was determined by HPLC (see below).
Standard solutions of the SP196-FD-P1 free drug of compound 1 and the L-malate salt of compound 1 (SP196-MLA-P4) were prepared in the concentration range of 0.2-0.05 mg/mL for the construction of a calibration curve.

[3] = Suspension equilibration experiments (thermodynamically stable polymorphic form); conditions: at least in the temperature range from 25° C. to 60° C.
Description: Suspension equilibration experiments in a variety of different solvents and solvent mixtures were carried out at various temperatures.
In addition, the use of high temperatures can help overcome kinetic barriers to polymorphic interconversion.
The experiments at 5° C. were carried out to search for solvated (and additional hydrated) forms of compound 1 since experiments at low temperatures are conducive to solvate and hydrate formation.
The amorphous material was used as the starting material for several suspension equilibration experiments (temperature=5° C., 30° C., 75° C., or 90° C.; duration=1 d, 5 d, or 7 d; solvent=THF, 96:4 acetone/H2O, 98.5/1.5 acetone/H2O, 2-PrOH, or water). Since the amorphous form is in a higher energy state than the crystalline form of the starting material compound 1, potential kinetic barriers might not poses as much of a hindrance for a transformation. The amorphous form of compound 1 was used as starting material for experiments to determine the stability range of compound 1 by equilibration at various water activity levels.
Upon completion of the suspension equilibration experiments, the recovered products were examined by Raman spectroscopy both immediately after filtration and after 30 min of drying under vacuum at room temperature. […]

[4] = DVS (dynamic vapor sorption) isotherm / hygroscopicity
Description: Projekt Messtechnik Sorptions Prüfsystem SPS 11-100n or Surface Measurement Systems DVS-1. The sample was placed on an aluminum or platinum holder on top of a microbalance and allowed to equilibrate for 2 h at 50% r.h. before starting one of two pre-defined humidity programs: • (1) 2 h at 50% r.h.; • (2) 50→0% r.h. […] (5%/h); 5 h at 0% r.h.; and • (4) 0→50% r.h. (5%/h); 2 h at 50% r.h.

stability of the amorphous material (unchanged by XRPD) [1]	FT-Raman spectrum of the solid residue after aqueous solubility determination ([2]; after 2 h equilibration at 25° C. in water)	solubility at 2 h ([2]; doubly distilled water, 25 °C, pH 7.5, water, thermodynamic from solid, after 2 h equilibration at 25° C., pH=7.5 of saturated solution)	DVS final mass above the starting mass ([4]; after return from 95% r.h. to 50% r.h.)	DVS reversible mass loss ([4]; decreasing relative humidity from 50% r.h. to 0%)	DVS mass increase ([4]; from 50% to 85% r.h.)	DVS (total) mass increase ([4]; increasing relative humidity from 50% r.h. to 95% r.h.)	SMILES	thermodynamic stability of the polymorph [3]	hygroscopicity classification ([4]; based on mass gain at 85% r.h.)	FT-Raman spectrum of the material after the DVS measurement ([4]; solid form after DVS cycle)
at least 5 days							CCn1cc(C(=O)N2CCOCC2)c(=O)c2cc(NC3Cc4ccccc4C3)cnc21 [Form A, 1-ethyl-6-(indan-2-ylamino)-3-(morpholine-4-carbonyl)-1,8-naphthyridin-4-one]			
	unchanged	~40 µg/mL (≈ 95.6 µM)	equal to the starting mass	~0.3 wt %	~0.2 wt %	~0.6 wt %	CCn1cc(C(=O)N2CCOCC2)c(=O)c2cc(NC3Cc4ccccc4C3)cnc21 [Form C, 1-ethyl-6-(indan-2-ylamino)-3-(morpholine-4-carbonyl)-1,8-naphthyridin-4-one]	thermodynamically stable polymorph	slightly hygroscopic (slightly hygroscopic (mass increase<2% and ≥0.2%))	corresponds to the spectrum of the material before the DVS measurement
							CCn1cc(C(=O)N2CCOCC2)c(=O)c2cc(NC3Cc4ccccc4C3)cnc21 [Form D, 1-ethyl-6-(indan-2-ylamino)-3-(morpholine-4-carbonyl)-1,8-naphthyridin-4-one]	thermodynamically less stable than Form C		
